Measured values reported in patent US20160346249A1 (priority 2012, published 2016).
Where two headings read alike, the source gives them in different places.

Legend:
[1] = Acute intravenous or oral rat bioavailability study; assay type: in vivo; conditions: plasma, oral 10 mg/kg vs IV 5 mg/kg, both sexes, read-out: absolute oral bioavailability
Procedure: Plasma samples were assayed using a validated LC/MS/MS assay.

[2] = 13-week dog toxicity and toxicokinetic study; assay type: in vivo; conditions: for AUC(0-t) / Cmax / Tmax: beagle, dog, in vivo; for AUC(0-t): read-out: AUC0-24; for body weight gain during the study: 20 mg/kg; for mean body weight lower than control: end of study
Procedure: […] For toxicology assessment, clinical observations, body weight, and food consumption measures were recorded periodically during the study. Ophthalmic examinations were performed and ECGs recorded during Weeks −1 and 12. Clinical pathology evaluations (hematology, serum chemistry, and urinalysis) were performed prior to the initiation of dose administration (Week −1) and prior to the scheduled necropsy (Week 13). At termination, complete necropsies were performed on all dogs and selected organs were weighed. Selected tissues from the control and 20 mg/kg/day group animals and animals euthanized in extremis were examined microscopically. Gross lesions from the 2 and 6 mg/kg/day groups were also examined.

[3] = Phase 1b multiple-dose placebo-controlled safety study, 8 weeks; assay type: in vivo, human
Text: This Phase 1b study enrolled 46 male and female subjects.

[4] = female, po, 2 mg/kg/day, females, 2 mg/kg/day, Day 0
[5] = female, po, 2 mg/kg/day, females, 2 mg/kg/day, Day 86
[6] = female, po, 6 mg/kg/day, females, 6 mg/kg/day, Day 0
[7] = female, po, 6 mg/kg/day, females, 6 mg/kg/day, Day 86
[8] = female, po, 20 mg/kg/day, females, 20 mg/kg/day, Day 0
[9] = female, po, 20 mg/kg/day, females, 20 mg/kg/day, Day 86
[10] = male, po, 2 mg/kg/day, males, 2 mg/kg/day, Day 0
[11] = male, po, 2 mg/kg/day, males, 2 mg/kg/day, Day 86
[12] = male, po, 6 mg/kg/day, males, 6 mg/kg/day, Day 0
[13] = male, po, 6 mg/kg/day, males, 6 mg/kg/day, Day 86
[14] = male, po, 20 mg/kg/day, males, 20 mg/kg/day, Day 0
[15] = male, po, 20 mg/kg/day, males, 20 mg/kg/day, Day 86
[16] = 8 weeks, 25 to 75 mg BID, N = 31, Safety Population

## Clc1ccc([C@]23CNC[C@H]2C3)cc1Cl [amitifadine, (+)-1-(3,4-dichlorophenyl)-3-azabicyclo[3.1.0]hexane]
[1]
  bioavailability: ≥ 77%
[2]; female, oral, 6 mg/kg/day, females, 6 mg/kg/day, Day 86
  AUC(0-t): 15900 ng·h/mL
[2]; [4]
  Cmax: 635 ng/mL
  Tmax: 1 h
  AUC(0-t): 1480 ng·h/mL
[2]; [5]
  Cmax: 663 ng/mL
  Tmax: 1 h
  AUC(0-t): 2150 ng·h/mL
[2]; [6]
  Cmax: 5120 ng/mL
  Tmax: 1 h
  AUC(0-t): 13600 ng·h/mL
[2]; [7]
  Cmax: 4850 ng/mL
  Tmax: 1 h
[2]; [8]
  Cmax: 9280 ng/mL
  Tmax: 2 h
  AUC(0-t): 63600 ng·h/mL
[2]; [9]
  Cmax: 8430 ng/mL
  Tmax: 1 h
  AUC(0-t): 29600 ng·h/mL
[2]; females
  body weight gain during the study: 0.4 ± 0.79 kg
[2]; females, 20 mg/kg/day
  mean body weight lower than control: 9%
[2]; male, oral, 6 mg/kg/day, males, 6 mg/kg/day, Day 86
  AUC(0-t): 13100 ng·h/mL
[2]; [10]
  Cmax: 507 ng/mL
  Tmax: 1 h
  AUC(0-t): 1570 ng·h/mL
[2]; [11]
  Cmax: 753 ng/mL
  Tmax: 1 h
  AUC(0-t): 2280 ng·h/mL
[2]; [12]
  Cmax: 4640 ng/mL
  Tmax: 1 h
  AUC(0-t): 12800 ng·h/mL
[2]; [13]
  Cmax: 4140 ng/mL
  Tmax: 1 h
[2]; [14]
  Cmax: 11400 ng/mL
  Tmax: 1 h
  AUC(0-t): 47800 ng·h/mL
[2]; [15]
  Cmax: 7230 ng/mL
  Tmax: 1 h
  AUC(0-t): 44000 ng·h/mL
[2]; males
  body weight gain during the study: -0.3 ± 0.58 kg
[2]; males, 20 mg/kg/day
  food consumption less than control: ≥ 10%
  mean body weight lower than control: 13%
[3]; [16]
  Abdomibal Pain Upper, % of subjects: 0.0%
  Abdomibal Pain Upper, number of subjects with AE: 0
  Abdominal Pain Lower, % of subjects: 0.0%
  Abdominal Pain Lower, number of subjects with AE: 0
  Diarrhea, % of subjects: 6.5%
  Diarrhea, number of subjects with AE: 2
  Dizziness, % of subjects: 6.5%
  Dizziness, number of subjects with AE: 2
  Gastroesophageal Reflux Disease, % of subjects: 0.0%
  Gastroesophageal Reflux Disease, number of subjects with AE: 0
  Headache, % of subjects: 22.6%
  Headache, number of subjects with AE: 7
  Hyperhidrosis, % of subjects: 3.2%
  Hyperhidrosis, number of subjects with AE: 1
  Increased Appetite, % of subjects: 3.2%
  Increased Appetite, number of subjects with AE: 1
  Metrorrhagia, % of subjects: 3.2%
  Metrorrhagia, number of subjects with AE: 1
  Nausea, % of subjects: 16.1%
  Nausea, number of subjects with AE: 5
  Pruritus, % of subjects: 3.2%
  Pruritus, number of subjects with AE: 1
  Rhinitis Allergic, % of subjects: 3.2%
  Rhinitis Allergic, number of subjects with AE: 1
  Skin Rash, % of subjects: 3.2%
  Skin Rash, number of subjects with AE: 1
  Subjects with at Least One AE, %: 35.5%
  Syncope, % of subjects: 0.0%
  Syncope, number of subjects with AE: 0
  Toothache, % of subjects: 3.2%
  Toothache, number of subjects with AE: 1
  Total Number of Subjects with at Least One AE: 11
[3]; 25-75 mg BID, 8 weeks
  proportion of subjects with TEAEs: 36%
[3]; Randomized Population, N = 31
  Completed Subjects, %: 74.2%
  Premature discontinuation: Adverse Event, %: 3.2%
  Premature discontinuation: Allergic Reaction to Study Medication, %: 3.2%
  Premature discontinuation: Lost to Follow Up, %: 3.2%
  Premature discontinuation: Other, %: 9.7%
  Premature discontinuation: Subject Requested Withdrawal, %: 6.5%
  Withdrawal/Early Termination, %: 25.8%
[3]; end of treatment period
  reduction in mean triglyceride levels: ~29%
[3]; following 2 weeks of treatment
  reduction in mean triglyceride levels: ~23%
[3]; in vivo
  subjects who dropped out due to AEs: 3.2%
